Data: US8394969B2, “Cyclic benzimidazole derivatives useful as anti-diabetic agents” (Merck Sharp & Dohme Corp., priority 2008, dated 2013)

Each compound was assayed against recombinant human AMPK complex 1 (containing α1β1γ1) (Homo sapiens, UniProt Q13131+Q9Y478) (assay: […] (in vitro AMPK activation assay)). Details: read-out: % Maximum AMP Activation of human AMPK Complex 1, recombinant human AMPK complex 1 (α1β1γ1); basal activity subtracted.
Assay type: biochemical

recombinant human AMPK complex 1 (containing α1β1γ1), sequence (Q13131 whole entry): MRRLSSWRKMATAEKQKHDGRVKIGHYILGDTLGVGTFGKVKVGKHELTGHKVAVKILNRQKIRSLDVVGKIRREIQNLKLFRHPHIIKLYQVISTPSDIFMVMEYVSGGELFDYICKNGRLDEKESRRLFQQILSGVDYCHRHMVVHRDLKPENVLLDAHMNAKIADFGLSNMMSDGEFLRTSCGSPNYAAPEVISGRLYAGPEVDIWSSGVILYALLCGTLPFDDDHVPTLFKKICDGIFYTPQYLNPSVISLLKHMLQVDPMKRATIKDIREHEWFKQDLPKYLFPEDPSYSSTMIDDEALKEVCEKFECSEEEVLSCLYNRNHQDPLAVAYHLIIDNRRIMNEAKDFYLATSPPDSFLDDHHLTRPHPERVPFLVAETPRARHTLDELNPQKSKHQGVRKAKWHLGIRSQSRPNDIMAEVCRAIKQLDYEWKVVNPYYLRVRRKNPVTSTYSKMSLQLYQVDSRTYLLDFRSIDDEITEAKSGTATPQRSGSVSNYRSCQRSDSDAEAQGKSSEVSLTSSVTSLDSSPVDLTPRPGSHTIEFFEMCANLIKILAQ
recombinant human AMPK complex 1 (containing α1β1γ1), sequence (Q9Y478 whole entry): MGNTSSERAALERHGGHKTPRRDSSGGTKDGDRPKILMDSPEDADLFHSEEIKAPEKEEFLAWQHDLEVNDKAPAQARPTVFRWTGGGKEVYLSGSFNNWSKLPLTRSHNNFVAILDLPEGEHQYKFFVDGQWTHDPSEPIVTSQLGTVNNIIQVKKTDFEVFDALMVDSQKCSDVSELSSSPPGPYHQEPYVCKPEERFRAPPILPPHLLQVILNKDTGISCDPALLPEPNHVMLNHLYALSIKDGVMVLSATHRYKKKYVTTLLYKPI
recombinant human AMPK complex 1 (containing α1β1γ1), sequence (P54619 whole entry partner): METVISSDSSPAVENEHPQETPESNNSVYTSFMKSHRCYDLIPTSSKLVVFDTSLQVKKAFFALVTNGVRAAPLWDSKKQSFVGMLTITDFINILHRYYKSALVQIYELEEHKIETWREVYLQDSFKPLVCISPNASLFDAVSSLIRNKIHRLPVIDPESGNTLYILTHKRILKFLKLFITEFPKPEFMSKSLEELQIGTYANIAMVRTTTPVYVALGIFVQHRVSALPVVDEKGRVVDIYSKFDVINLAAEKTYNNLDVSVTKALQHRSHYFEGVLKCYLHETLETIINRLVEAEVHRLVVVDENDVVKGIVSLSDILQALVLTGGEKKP

Compound | Emax [%]
CSc1ccc(-c2cc3nc(Oc4ccc(C)c(C(=O)O)c4)[nH]c3cc2Cl)cc1 [Example 343, Ammonium 5-({6-chloro-5-[4-(methylthio)phenyl]-1H-benzimidazol-2-yl}oxy)-2-methylbenzoate] | > 80
Cc1ccc(Oc2nc3cc(-c4cccc(N(C)C)c4)c(Cl)cc3[nH]2)cc1C(=O)O [Example 346, Ammonium 5-({6-chloro-5-[3-(dimethylamino)phen-yl]-1H-benzimidazol-2-yl}oxy)-2-methylbenzoate] | > 80

Same assay, conditions: recombinant human AMPK complex 1 (α1β1γ1); basal activity subtracted; read-out: % Maximum AMP Activation of human AMPK Complex 1

Compound | Emax [%]
COC(=O)c1cc(Oc2nc3cc(C#Cc4ccccc4)c(Cl)cc3[nH]2)cc(C(=O)OC)c1 [Example 49, 5-(6-Chloro-5-phenylethynyl-1H-benzoimidazol-2-yloxy)-isophthalic acid dimethyl ester] | > 80
Cc1cc(C)c(C(=O)O)cc1Oc1nc2cc(-c3ccc(-c4ccccc4)cc3)c(Cl)cc2[nH]1 [Example 208, 5-(5-Biphenyl-4-yl-6-chloro-1H-benzoimidazol-2-yloxy)-2,4-dimethyl-benzoic acid] | > 80
Cc1ccc(Oc2nc3cc(C#Cc4ccccc4Cl)c(Cl)cc3[nH]2)cc1C(=O)O [Example 115, 5-[6-Chloro-5-(2-chloro-phenylethynyl)-1H-benzoimidazol-2-yloxy]-2-methyl-benzoic acid] | > 80
O=C(O)c1ccc(Oc2nc3cc(-c4ccc(-c5ccccc5)cc4)c(Cl)cc3[nH]2)cc1Cl [Example 39, 4-(5-Biphenyl-4-yl-6-chloro-1H-benzoimidazol-2-yloxy)-2-chloro-benzoic acid] | > 80
Cc1cc(Oc2nc3cc(-c4ccc5c(c4)OCCN5C)c(Cl)cc3[nH]2)cc(C(=O)O)c1C [Example 312, 5-[6-Chloro-5-(4-methyl-3,4-dihydro-2H-benzo[1,4]oxazin-7-yl)-1H-benzoimidazol-2-yloxy]-2,3-dimethyl-benzoic acid] | > 80
Cc1ccc(Oc2nc3cc(C#Cc4cccc(F)c4)c(Cl)cc3[nH]2)cc1C(=O)O [Example 111, 5-[6-Chloro-5-(3-fluoro-phenylethynyl)-1H-benzoimidazol-2-yloxy]-2-methyl-benzoic acid] | > 80
Cc1ccc(Oc2nc3cc(C#Cc4ccc(C#N)cc4)c(Cl)cc3[nH]2)cc1C(=O)O [Example 92, 5-[6-Chloro-5-(4-cyano-phenylethynyl)-1H-benzoimidazol-2-yloxy]-2-methyl-benzoic acid] | > 80
Cc1cc(Oc2nc3cc(-c4ccc(-c5ccccc5)cc4)c(Cl)cc3[nH]2)cc(O)c1C(=O)O [Example 27, 4-(5-Biphenyl-4-yl-6-chloro-1H-benzoimidazol-2-yloxy)-2-hydroxy-6-mehtyl-benzoic acid] | > 80
Cc1ccc(Oc2nc3cc(-c4ccc5[nH]c(=O)ccc5c4)c(Cl)cc3[nH]2)cc1C(=O)O [Example 233, 5-[6-Chloro-5-(2-oxo-1,2-dihydro-quinolin-6-yl)-1H-benzoimidazol-2-yloxy]-2-methyl-benzoic acid] | > 80
COc1ccc(-c2ccc(-c3cc4nc(Oc5cc(C)c(C)c(C(=O)O)c5)[nH]c4cc3Cl)cc2)cn1 [Example 315, 5-{6-Chloro-5-[4-(6-methoxy-pyridin-3-yl)-phenyl]-1H-benzoimidazol-2-yloxy}-2,3-dimethyl-benzoic acid] | > 80
Cc1ccc(Oc2nc3cc(-c4ccc5c(C)c[nH]c5c4)c(Cl)cc3[nH]2)cc1C(=O)O [Example 291, 5-[6-Chloro-5-(3-methyl-1H-indol-6-yl)-1H-benzoimidazol-2-yloxy]-2-methyl-benzoic acid] | > 80
Cc1ccc(Oc2nc3cc(-c4ccc5c(c4)OCCO5)c(Cl)cc3[nH]2)cc1C(=O)O [Example 360, 5-[6-Chloro-5-(2,3-dihydro-benzo[1,4]dioxin-6-yl)-1H-benzoimidazol-2-yloxy]-2-methyl-benzoic acid] | > 80
CCc1ccc(Oc2nc3cc(-c4ccc(-c5ccccc5)cc4)c(Cl)cc3[nH]2)cc1C(=O)O [Example 212, 5-(5-Biphenyl-4-yl-6-chloro-1H-benzoimidazol-2-yloxy)-2-ethyl-benzoic acid] | > 80
O=C(O)Cn1nnc(-c2cccc(Oc3nc4cc(-c5ccc(-c6ccccc6)cc5)c(Cl)cc4[nH]3)c2)n1 [Example 40, {5-[3-(5-Biphenyl-4-yl-6-chloro-1H-benzoimidazol-2-yloxy)-phenyl]-tetrazol-2-yl}-acetic acid] | > 80
NC(=O)Nc1cccc(Oc2nc3cc(-c4ccc(-c5ccccc5)cc4)c(Cl)cc3[nH]2)c1 [Example 2, [3-(5-Biphenyl-4-yl-6-chloro-1H-benzoimidazol-2-yloxy)-phenyl]-urea] | > 80
Cc1ccc(Oc2nc3cc(-c4ccc(-n5cccn5)cc4)c(Cl)cc3[nH]2)cc1C(=O)O [Example 58, 5-[6-Chloro-5-(4-pyrazol-1-yl-phenyl)-1H-benzoimidazol-2-yloxy]-2-methyl-benzoic acid] | > 80
Cc1ccc(Oc2nc3cc(-c4cnc(N5CCCC5)cn4)c(F)cc3[nH]2)cc1C(=O)O [Example 250, 5-[6-Fluoro-5-(5-pyrrolidin-1-yl-pyrazin-2-yl)-1H-benzoimidazol-2-yloxy]-2-methyl-benzoic acid] | > 80
Cc1ccc(Oc2nc3cc(-c4ccc(-c5ccc(C#N)cc5)cc4)c(Cl)cc3[nH]2)cc1C(=O)O [Example 103, 5-[6-Chloro-5-(4′-cyano-biphenyl-4-yl)-1H-benzoimidazol-2-yloxy]-2-methyl-benzoic acid] | > 80

Compound | Emax [%]
Cc1ccc(Oc2nc3cc(-c4ccc(N5CCOCC5)nc4)c(Cl)cc3[nH]2)cc1C(=O)O [Example 173, 5-[6-Chloro-5-(6-morpholin-4-yl-pyridin-3-yl)-1H-benzoimidazol-2-yloxy]-2-methyl-benzoic acid] | > 80
Cc1ccc(Oc2nc3cc(-c4ccc(-c5cccc(Cl)c5)cc4)c(Cl)cc3[nH]2)cc1C(=O)O [Example 186, 5-{[6-chloro-5-(3′-chlorobiphenyl-4-yl)-1H-benzimidazol-2-yl]oxy}-2-methylbenzoic acid] | > 80
Cc1ccc(Oc2nc3cc(-c4ccc(N5CCNCC5)cc4)c(Cl)cc3[nH]2)cc1C(=O)O [Example 178, 5-[6-Chloro-5-(4-piperazin-1-yl-phenyl)-1H-benzoimidazol-2-yloxy]-2-methyl-benzoic acid] | > 80
COc1ccccc1-c1ccc(-c2cc3nc(Oc4ccc(C)c(C(=O)O)c4)[nH]c3cc2Cl)cc1 [Example 194, 5-{[6-chloro-5-(2′-methoxybiphenyl-4-yl)-1H-benzimidazol-2-yl]oxy}-2-methylbenzoic acid] | > 80
Cc1ccc(Oc2nc3cc(-c4ccc(-c5cn[nH]c5)cc4)c(Cl)cc3[nH]2)cc1C(=O)O [Example 202, 5-({6-chloro-5-[4-(1H-pyrazol-4-yl)phenyl]-1H-benzimidazol-2-yl}oxy)-2-methylbenzoic acid] | > 80
O=C(O)c1cccc(Nc2nc3cc(-c4ccc(-c5ccccc5O)cc4)c(Cl)cc3[nH]2)c1 [Example 52, 3-[6-Chloro-5-(2′-hydroxy-biphenyl-4-yl)-1H-benzoimidazol-2-ylamino]-benzoic acid] | > 80
Cc1cc(Oc2nc3cc(-c4ccc(-c5ccccc5)cc4)c(Cl)cc3[nH]2)cc(C(=O)O)c1 [Example 50, 3-(5-Biphenyl-4-yl-6-chloro-1H-benzoimidazol-2-yloxy)-5-methyl-benzoic acid] | > 80
Cc1ccc(Oc2nc3cc(C#Cc4ccncc4)c(Cl)cc3[nH]2)cc1C(=O)O [Example 87, 5-(6-Chloro-5-pyridin-4-ylethynyl-1H-benzoimidazol-2-yloxy)-2-methyl-benzoic acid] | > 80
Cc1ccc(Oc2nc3cc(C#Cc4ccc(=O)[nH]c4)c(Cl)cc3[nH]2)cc1C(=O)O [Example 128, 5-[6-Chloro-5-(6-oxo-1,6-dihydro-pyridin-3-ylethynyl)-1H-benzoimidazol-2-yloxy]-2-methyl-benzoic acid] | > 80
Cc1ccc(Oc2nc3cc(-c4ccc(C#N)cc4)c(Cl)cc3[nH]2)cc1C(=O)O [Example 180, 5-[6-Chloro-5-(4-cyano-phenyl)-1H-benzoimidazol-2-yloxy]-2-methyl-benzoic acid] | > 80
Cc1ccc(Oc2nc3cc(-c4ccc(-c5ccccc5N)cc4)c(Cl)cc3[nH]2)cc1C(=O)O [Example 205, 5-{[5-(2′-aminobiphenyl-4-yl)-6-chloro-1H-benzimidazol-2-yl]oxy}-2-methylbenzoic acid] | > 80
O=C(O)c1ccc(Oc2nc3cc(-c4ccc(-c5ccccc5)cc4)c(Cl)cc3[nH]2)cc1C(=O)O [Example 36, 4-(5-Biphenyl-4-yl-6-chloro-1H-benzoimidazol-2-yloxy)-phthalic acid] | > 80
Cc1ccc(Oc2nc3cc(C#Cc4cccc(Cl)c4)c(Cl)cc3[nH]2)cc1C(=O)O [Example 110, 5-[6-Chloro-5-(3-chloro-phenylethynyl)-1H-benzoimidazol-2-yloxy]-2-methyl-benzoic acid] | > 80
O=C1NC(=O)C(c2ccc(Oc3nc4cc(-c5ccc(-c6ccccc6)cc5)c(Cl)cc4[nH]3)cc2)N1 (stereo not shown) [Example 29, 5-[4-(5-Biphenyl-4-yl-6-chloro-1H-benzoimidazol-2-yloxy)-phenyl]-imidazolidine-2,4-dione] | > 80
Cc1ccc(Oc2nc3cc(-c4ccc(N5CCOCC5)cc4)c(Cl)cc3[nH]2)cc1C(=O)O [Example 179, 5-[6-Chloro-5-(4-morpholin-4-yl-phenyl)-1H-benzoimidazol-2-yloxy]-2-methyl-benzoic acid] | > 80
COC(=O)c1cc(Oc2nc3cc(-c4ccc(-c5ccccc5)cc4)c(Cl)cc3[nH]2)cc(C)c1C [Example 14, 5-(5-Biphenyl-4-yl-6-chloro-1H-benzoimidazol-2-yloxy)-2,3-dimethyl-benzoic acid methyl ester] | > 80
COC(=O)c1ccc(Oc2nc3cc(-c4ccc(-c5ccccc5)cc4)c(Cl)cc3[nH]2)cc1O [Example 31, 4-(5-Biphenyl-4-yl-6-chloro-1H-benzoimidazol-2-yloxy)-2-hydroxy-benzoic acid methyl ester] | > 80
